# Data reported in patent US20150086557A1, “NOVEL INTEGRIN alpha9 beta1 LIGAND AND USES THEREOF” (OSAKA UNIVERSITY, priority 2012, published 2015).
# Legend:
# integrin α9β1 = biological target: T1, integrin α9β1 (Homo sapiens, UniProt P05556+Q13797); assay: Direct integrin binding assay with recombinant integrin α9β1
# T1 construct: A cDNA encoding the extracellular region of human integrin α9; An expression vector for the extracellular region of integrin β1; ACID coiled-coil (Velcro) peptide; FLAG; BASE coiled-coil (Velcro) peptide; made in house; host or cells: FreeStyle 293 Expression System (293-F cells)
# Excerpt: A cDNA encoding the extracellular region of human integrin α9 was amplified by RT-PCR from total RNA extracted from RD cells and cloned into pBluescript KS(+). After verification of the nucleotide sequence, an error-free cDNA fragment was inserted into pcDNA-ACID-FLAG (Nishiuchi, R., Takagi, J., Hayashi, M., Ido, H., Yagi, Y., Sanzen, N., Tsuji, T., Yamada, M., and Sekiguchi, K. (2006) Matrix Biol. 25, 189-197). An expression vector for the extracellular region of integrin β1 was provided by Dr. Junichi Takagi (Takagi, J., Erickson, H. P., and Springer, T. A. (2001) Nat. Struct. Biol. 8, 412-416). The recombinant integrins were produced using the Freestyle™ 293 Expression System (Invitrogen) and purified as described in the above-mentioned publication Matrix Biol. 25, 189-197, (2006).
# An integrin binding assay was performed as described in the above-mentioned publication Matrix Biol. 25, […], (2006). In some experiments, integrins were preincubated with synthetic peptides at various concentrations to evaluate the inhibitory activities of the synthetic peptides. The apparent dissociation constants were determined as described in Nishiuchi, R., Murayama, O., Fujiwara, H., Gu, J., Kawakami. T., Aimoto, S., Wada, Y., and Sekiguchi, K. (2003) J. Biochem, 134, 497-504.
# To corroborate the role of integrin α9β1 as an adhesion receptor for polydom, a direct integrin binding assay was performed, using recombinant integrin α9β1. Plates were coated with full-length polydom, pol-N, pol-C, plasma fibronectin (pFN) or cellular fibronectin (cFN), and recombinant integrin α9β1 was added and allowed to bind thereto in the presence of 1 mM MnCl2 or 10 mM EDTA. BSA was used as a negative control. The bound integrin was quantified using a biotinylated anti-Velcro antibody and HRP-conjugated streptavidin.
# Integrin α9β1 is known to bind to the third fibronectin type III domain of tenascin-C (TNfn3) and the osteopontin N-terminal half (OPN-Nhalf). These integrin α9β1 ligands were recombinantly expressed as GST fusion proteins and then purified. In the GST fusion proteins, the RGD cell-adhesive motifs were replaced with RAA to nullify their abilities to interact with RGD-binding integrins, such as those containing the αv subunit, Microtiter plates were coated with pol-C (10 nM), GST-TNfn3-RAA (100 nM) or GST-OPN-Nhalf-RAA (100 nM), and integrin α9β1 was added and allowed to bind thereto in the presence of 1 mM MnCl2.
# To locate the integrin α9β1-binding site within polydom, a series of five N-terminal deletion mutants of polydom (pol-C, ΔEGF6, ΔPTX, ΔCCP20 and ΔCCP21; see FIG. 9) were constructed. Their binding activities for integrin α9β1 were evaluated in the presence of 1 mM MnCl2 or 10 mM EDTA using microtiter plates coated with these recombinant proteins (10 nM).
# Among the 34 CCP domains within polydom, CCP21 is unique because it contains about 40 extra amino acids as compared with the other CCP domains. An assay to examine whether this extra region (hereinafter referred to as “extra segment”) within CCP21 is involved in binding to integrin α9β1 was performed, Microtiter plates were coated with a GST-CCP21 fusion protein, a D2628-S2664 deletion mutant of the GST-CCP21 fusion protein (CCP21ΔD2628-S2664), D2628-S2664 alone (see FIG. 11), pol-C or GST alone, and integrin α9β1 was added and allowed to bind thereto in the presence of 1 mM MnCl2 or 10 mM EDTA.
# To further narrow down the region responsible for binding to integrin α9β1, the extra 37-amino acid segment of CCP21 was divided into smaller segments, of which GST fusion proteins were produced. Microtiter plates were coated with eight kinds of segments including CCP21, pol-C and GST alone, and integrin α9β1 was added and allowed to bind thereto in the presence of 1 mM MnCl2 or 10 mM EDTA.
# To identify the residues involved in binding to Integrin α9β1, alanine scanning mutants and N-terminal or C-terminal deletion mutants of D2634-L2645 were produced as GST fusion proteins. […]
# RD cells = assay: Cell adhesion assay on coated plates (RD cells); assay type: cell-based, human
# Procedure: A cell adhesion assay was performed as described in Sato, Y. , Uemura, T., Morimitsu, K., Sato-Nishiuchi, R., Manabe, R., Takagi, J., Yamada, M., and Sekiguchi, K. (2009) J. Biol. Chem. 284, 14524-14536. For an assay involving blocking antibodies, RD cells (human rhabdomyosarcoma cells) were preincubated with monoclonal antibodies of interest at room temperature for 15 minutes and plated on 96-well plates coated with recombinant polydom proteins or fibronectin. The cells were incubated for 30 minutes, washed, fixed with 3.7% formaldehyde, and stained with 0.5% toluidine blue.
# The cells were plated on 96-well plates coated with serial diluted concentrations of full-length polydom, pol-N, pol-C or plasma fibronectin (FN) and incubated at 37° C. for 30 minutes. After washing out unattached cells, attached cells were fixed and stained with toluidine blue. The attached cells were counted under a microscope. The assay was performed in triplicate.
# A549 cells = assay: Cell adhesion assay on coated plates (A549 cells); assay type: cell-based, human; settings: data not shown
# HT1080 cells = assay: Cell adhesion assay on coated plates (HT1080 cells); assay type: cell-based, human; settings: data not shown
# T1 sequence (Q13797 30-981 limits assumed): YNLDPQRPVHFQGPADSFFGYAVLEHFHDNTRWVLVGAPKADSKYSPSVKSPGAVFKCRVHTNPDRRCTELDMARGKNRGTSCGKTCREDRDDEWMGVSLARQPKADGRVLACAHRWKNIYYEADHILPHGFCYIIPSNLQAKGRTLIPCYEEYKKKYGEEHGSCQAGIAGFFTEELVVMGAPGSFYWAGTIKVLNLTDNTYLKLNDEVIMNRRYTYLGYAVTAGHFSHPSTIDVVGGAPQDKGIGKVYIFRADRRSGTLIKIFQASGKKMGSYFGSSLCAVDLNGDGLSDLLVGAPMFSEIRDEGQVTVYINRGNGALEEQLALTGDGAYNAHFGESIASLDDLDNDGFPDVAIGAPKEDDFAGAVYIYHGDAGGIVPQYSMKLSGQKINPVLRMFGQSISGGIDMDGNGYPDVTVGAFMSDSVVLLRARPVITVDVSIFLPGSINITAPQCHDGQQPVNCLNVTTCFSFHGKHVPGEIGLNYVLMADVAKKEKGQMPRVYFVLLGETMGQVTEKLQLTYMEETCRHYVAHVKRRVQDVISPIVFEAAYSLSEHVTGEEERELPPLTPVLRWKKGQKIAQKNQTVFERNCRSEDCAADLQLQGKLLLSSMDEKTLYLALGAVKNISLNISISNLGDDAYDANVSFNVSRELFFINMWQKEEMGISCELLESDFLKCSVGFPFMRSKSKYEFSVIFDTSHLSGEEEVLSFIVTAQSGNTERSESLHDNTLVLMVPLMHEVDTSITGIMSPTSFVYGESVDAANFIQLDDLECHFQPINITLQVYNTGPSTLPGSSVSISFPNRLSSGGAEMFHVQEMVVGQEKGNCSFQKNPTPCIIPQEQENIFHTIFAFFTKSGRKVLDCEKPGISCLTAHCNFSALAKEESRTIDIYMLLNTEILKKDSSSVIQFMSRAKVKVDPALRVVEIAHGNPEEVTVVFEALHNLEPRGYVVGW
# T1 sequence (P05556 21-728 limits assumed): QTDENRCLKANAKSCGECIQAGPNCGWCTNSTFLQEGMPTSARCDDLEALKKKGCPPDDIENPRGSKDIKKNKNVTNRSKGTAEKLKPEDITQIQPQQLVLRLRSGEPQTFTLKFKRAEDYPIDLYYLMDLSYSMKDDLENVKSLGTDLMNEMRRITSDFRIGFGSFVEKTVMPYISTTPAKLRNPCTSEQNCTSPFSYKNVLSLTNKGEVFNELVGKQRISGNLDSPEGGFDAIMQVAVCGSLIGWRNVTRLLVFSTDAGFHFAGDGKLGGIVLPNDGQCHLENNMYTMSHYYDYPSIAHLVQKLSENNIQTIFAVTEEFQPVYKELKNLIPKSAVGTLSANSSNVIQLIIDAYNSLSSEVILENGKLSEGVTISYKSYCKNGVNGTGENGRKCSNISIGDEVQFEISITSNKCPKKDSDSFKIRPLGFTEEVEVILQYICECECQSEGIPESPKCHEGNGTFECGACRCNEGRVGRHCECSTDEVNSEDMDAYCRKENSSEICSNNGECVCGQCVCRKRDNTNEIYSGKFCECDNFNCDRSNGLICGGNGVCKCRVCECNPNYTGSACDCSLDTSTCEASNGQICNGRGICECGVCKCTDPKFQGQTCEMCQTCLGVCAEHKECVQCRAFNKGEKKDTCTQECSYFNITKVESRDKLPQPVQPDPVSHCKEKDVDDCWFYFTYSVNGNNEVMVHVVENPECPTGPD
substance,measurement,setting,value
"polydom: recombinant mouse SVEP1 (SEQ ID NO: 2), ECM protein, ligand for integrin α9β1",binding of recombinant integrin α9β1 to coated protein,"integrin α9β1; 1 mM MnCl2, FIG. 7",bound
same,binding of recombinant integrin α9β1 in the presence of EDTA,"integrin α9β1; 10 mM EDTA, FIG. 7",completely abrogated
same,coating concentration attaining the maximum adhesion of RD cells,"RD cells; 96-well plates, 37° C. for 30 minutes, FIG. 4",3 µg/mL
same,promotion of RD cell adhesion,"RD cells; coated 96-well plates, 37° C. for 30 minutes, FIG. 4",coating concentration-dependent manner
same,morphology of attached RD cells,"RD cells; microscopic observation, FIG. 5",exhibited spread morphology
same,adhesion of A549 cells,A549 cells,did not adhere
same,adhesion of HT1080 cells,HT1080 cells,did not adhere
